Assay results reported in patent US10351559B2, “Maleate salts of a B-RAF kinase inhibitor, crystalline forms, methods of preparation, and uses therefore” (BeiGene, Ltd., priority 2015, dated 2019).
Counter-ions that a name gives are not always drawn. Like-named read-outs stand apart in the source and are kept apart here.

How the values were obtained:
[1] = aqueous solubility study; assay type: physicochemical; conditions: sesqui-maleate salt
[2] = hygroscopicity (moisture sorption) by DVS; assay type: physicochemical; conditions: exposed to 95% RH, DVS
Description: The free base of Compound 1 was obtained originally as an amorphous solid, which is slightly hygroscopic with 2.2% water gain from 0 to 80% RH. No form transformation was observed after dynamic vapor sorption (DVS).

[3] = Raf kinase enzymatic assay (HTRF)
[4] = system: ERK phosphorylation in A375 cells; experiment: cellular phospho-ERK TR-FRET assay; assay type: cell-based; conditions: Homo sapiens, A-375; B-RAF V600E mutant melanoma A375 cells, 1 h treatment
Description: (§1) A375, Sk-Mel-28, HT29, Colo205, A431, and HCC827 cell lines were purchased from American Type Culture Collection. All the cell lines used in the cellular assays were cultured in the designated medium supplemented with 10% fetal bovine serum (FBS, Thermo Scientific), 100 units/mL penicillin (Gibco), 0.1 mg/mL streptomycin (Gibco) and in a humidified 37° C. environment with 5% CO2. Cell lines were reinstated from frozen stocks laid down within three passages from the original cells purchased and passaged no more than 30 times.
(§2) Cellular phospho-ERK and phospho-EGFR were measured using a TR-FRET-based method. Cells were seeded at 3×10^4 per well of a 96-well plate and left to attach for 16 hours. Growth medium was then replaced with 100 μL of medium containing no serum. Cells were then treated with a 10-point titration of compound. After 1 h of compound treatment, 50 μL of lysis buffer (Cisbio) were added to each well. Plates were then incubated at room temperature with shaking for 30 min. A total of 16 μL of cell lysate from each well of a 96-well plate was transferred to a 384-well small volume white plate. Lysate from each well was incubated with 2 μL of Eu3+- or Tb3+-cryptate (donor) labeled anti-ERK or anti-EGFR antibody (Cisbio) and 2 μL of D2 (acceptor) labeled anti-phospho-ERK or anti-phospho-EGFR antibody (Cisbio) for 2 h at room temperature. FRET signals were measured using a PHERAstar FS reader (BMG Labtech). IC50 values for ERK or EGFR phosphorylation was determined using GraphPad Prism software.

[5] = system: EGFR phosphorylation in A431 cells; experiment: cellular phospho-EGFR TR-FRET assay; assay type: cell-based; conditions: Homo sapiens, A-431; EGFR overexpressing A431 cells, 1 h treatment
Description: as §1
as §2, with “Lysate from each well was incubated with 2 μL of Eu3+- or Tb3+-cryptate (donor) labeled anti-ERK or anti-EGFR antibody (Cisbio) and 2 μL of D2 (acceptor) labeled anti-phospho-ERK or anti-phospho-EGFR antibody (Cisbio) for 2 h at room temperature.” left out

[6] = system: EGFR phosphorylation in HCC827 cells; experiment: cellular phospho-EGFR TR-FRET assay; assay type: cell-based; conditions: Homo sapiens; EGFR mutant HCC827 lung cancer cells, 1 h treatment
Description: as §1
as §2, with “Lysate from each well was incubated with 2 μL of Eu3+- or Tb3+-cryptate (donor) labeled anti-ERK or anti-EGFR antibody (Cisbio) and 2 μL of D2 (acceptor) labeled anti-phospho-ERK or anti-phospho-EGFR antibody (Cisbio) for 2 h at room temperature.” left out

[7] = pharmacokinetic study (LC-MS/MS); assay type: in vivo, beagle dogs; conditions: dogs
Description: The fully-validated LC-MS/MS method was well used for the pharmacokinetic (PK) studies of Crystalline Form A* of Compound 1 Sesqui-Maleate in Sprague-Dawley rats and beagle dogs following single- and multiple-dose administrations.

[8] = molecular target: CYP2C19 (Homo sapiens, UniProt P33261); experiment: CYP inhibition; assay type: in vitro ADME
Sequence of CYP2C19 (P33261 whole entry): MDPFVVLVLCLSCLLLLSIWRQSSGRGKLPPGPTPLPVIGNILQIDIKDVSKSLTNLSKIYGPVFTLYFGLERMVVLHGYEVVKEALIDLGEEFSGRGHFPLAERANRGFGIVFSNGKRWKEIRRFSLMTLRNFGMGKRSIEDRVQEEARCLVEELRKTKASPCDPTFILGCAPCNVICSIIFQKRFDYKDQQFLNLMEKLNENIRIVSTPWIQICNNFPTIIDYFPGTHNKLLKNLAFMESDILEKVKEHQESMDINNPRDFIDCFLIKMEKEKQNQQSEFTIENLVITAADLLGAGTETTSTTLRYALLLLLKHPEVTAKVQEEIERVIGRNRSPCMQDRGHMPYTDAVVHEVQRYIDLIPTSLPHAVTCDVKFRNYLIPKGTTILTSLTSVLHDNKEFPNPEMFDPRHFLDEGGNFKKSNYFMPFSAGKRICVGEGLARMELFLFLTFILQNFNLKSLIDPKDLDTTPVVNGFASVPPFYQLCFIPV

[9] = pharmacokinetic comparison of sesqui-maleate and free base, oral; assay type: in vivo, Beagle dogs; conditions: dogs
Description: Drugs and reagents: Crystalline Form A* of Compound 1 Sesqui-Maleate with particle sizes of D90=4.1 um, D10=1.5 um, D50=2.4 um after micronization. The material content (purity) was not less than 98.0%.
Experiment animals: Beagle dogs, male and female.
Pharmaceutical preparation: Weigh the appropriate amount of each substance and disperse in 0.5% sodium carboxymethyl cellulose (for the free base of Compound 1) or 0.5% methyl cellulose solution (for Compound 1 Sesqui-Maleate). Prepare a suspension at the desired concentration of Compound 1. All the doses and concentrations of Compound 1 were calculated with free base in this study.
Administration and sample collection: The dosing solutions will be freshly prepared prior to dose administration. The actual body weights and actual volume injected will be recorded accordingly. The dogs were fasted overnight and were allowed to intake food four hours after dosing. Each suspension was administrated orally to dogs at a dose ranged from 0.5 to 15 mg/kg. Blood samples (˜1.0 mL) will be collected at pre-dose and at different times up to 36 hours postdosing via cephalic vein plexus. Whole blood will be processed by centrifugation and plasma samples will be collected and kept at freezer prior to analysis. Plasma samples were processed by protein precipitation. Concentrations of Compound 1 in the plasma samples were determined using a validated liquid chromatography-tandem mass spectrometry (LC-MS/MS) method. The plasma concentration-time data were analyzed using a non-compartmental model using Pharsight WinNonlin.

[10] = oral dose 1 mg/kg (free base), listed as Sesqui-Maleate (Micronized Crystalline Form A*), sesqui-maleate salt, 1 mg/kg

O=C1CCc2c(Oc3ccc4c(c3)[C@@H]3[C@H](O4)[C@H]3c3nc4ccc(C(F)(F)F)cc4[nH]3)ccnc2N1 [5-(((1R,1aS,6bR)-1-(6-(trifluoromethyl)-1H-benzo[d]imidazol-2-yl)-1a,6b-dihydro-1H-cyclopropa[b]benzofuran-5-yl)oxy)-3,4-dihydro-1,8-naphthyridin-2(1H)-one sesqui-maleate salt]
solubility in water [1]: slightly soluble in water | aqueous solubility ([1]; water, LOQ at 0.001 mg/mL): 20 µg/mL | water uptake [2]: 0.1801% | IC50 ([3]; BRAF V600E (416-766), ATP at KM): 0.026 µM | enzyme inhibition ([3]; V600E mutant B-RAF): potent and reversible inhibitor | IC50 [4]: 0.032 µM | IC50 [5]: 0.385 µM | IC50 [6]: 0.161 µM | bioavailability ([7]; beagle, dog, in vivo, po): 41 to 82% | half-life ([7]; beagle, dog, in vivo, after oral administration, read-out: elimination half-life): 3.3 to 4.9 h | accumulation after multiple dosing [7]: No accumulation | kinetics over dose range ([7]; 1.5 to 15 mg/kg): linear | IC50 [8]: 1.96 µM | Cmax ([9]; both sexes, beagle, dog, plasma, po, 0.5 mg/kg, oral dose 0.5 mg/kg, read-out: Cmax): 342 ng/mL | Cmax ([9]; both sexes, beagle, dog, plasma, po, 1.5 mg/kg, oral dose 1.5 mg/kg, read-out: Cmax): 861 ng/mL | Cmax ([9]; both sexes, beagle, dog, plasma, po, 4.5 mg/kg, oral dose 4.5 mg/kg, read-out: Cmax): 2880 ng/mL | Cmax ([9]; both sexes, beagle, dog, plasma, po, 15 mg/kg, oral dose 15 mg/kg, read-out: Cmax): 5310 ng/mL | AUC0-inf relative to the free base form ([9]; oral): 2-3 times | Cmax relative to the free base form ([9]; oral): 2-3 times | Dose-Normalized AUC0-inf ([9]; oral dose 0.5 mg/kg): 4178 ng·kg·h/mL/mg | Cmax [9, 10]: 607 ng/mL | Dose-Normalized AUC0-inf [9, 10]: 2960 ng·kg·h/mL/mg | Dose-Normalized AUC0-inf ([9]; oral dose 1.5 mg/kg): 3726 ng·kg·h/mL/mg | Dose-Normalized AUC0-inf ([9]; oral dose 4.5 mg/kg): 4390 ng·kg·h/mL/mg | Dose-Normalized AUC0-inf ([9]; oral dose 15 mg/kg): 2841 ng·kg·h/mL/mg
